Measurements as given in US20110092488A1, “Quninoline Methanol Compounds for the Treatment and Prevention of Parasitic Infections” (priority 2005, published 2011).
Entries after “also recorded” stand apart in the source; their conditions may differ.

What was measured:
[1] = tested on: primary rat forebrain neurons; assay: Neurocytotoxicity assay (MTT); settings: for IC50: read-out: Neurotoxicity ranking (IC50 in μM), approximate IC50 from screen at 10, 100 and 1000 μM, MTT
Procedure: The neurocytotoxicity assay of AAQMs was conducted as per Dow et al.; The antimalarial potential of 4-quinolinecarbinolamines may be limited due to neurotoxicity and cross-resistance in mefloquine-resistant Plasmodium falciparum strains; Chemother. (48) 2624-2632 (2004) and is incorporated herein, by reference. This assay utilizes primary rat forebrain neurons and is a multi-endpoint screen. […] The AAQMs outlined in Table 1 were screened at 10, 100 and 1000 μM in triplicate, and the reduction in viability observed was determined using the 3-(4,5-dimethylthiazol-2-yl)-2,5-diphenyltetrazolium bromide (MTT) assay as per Dow et al., discussed above. Approximate IC50 values were calculated on the basis of the level of inhibition observed at each concentration. Full dose response assays were run for mefloquine and WR069878 with two fold dilutions (n=6 wells per dilution) and 11 dilutions for each drug. IC50s were calculated using Prism. Each time the assay is conducted, 20 μM mefloquine is included, as a control. […] Assays are re-run if the loss of viability induced by mefloquine is <40% or >60%. Neuroprotection experiments with 6,7-dinitroquinoxaline-2,3-dione (DNQX) and magnesium were performed as per Dow et al.; Transcriptional profiling of mefloquine-induced disruption of calcium homeostasis in neurons in vitro; Genomics (86)539-550 (2005), which is incorporated by reference, herein. Neurons were exposed to DNQX (100 μM) or magnesium (12 mM) for 5 min, followed by mefloquine (25 μM) or WR069878 (250 μM) for 20 min after which reduction in cell viability was determined. […] DNQX is an inhibitor of non-N-methyl-D-aspartate (NMDA) receptors, whilst magnesium inhibits the functioning of the inositol 1,4,5-trisphosphate (IP3)-mediated calcium signaling pathway at several points. The effects of mefloquine and WR069878 on neuronal calcium homeostasis were assessed utilizing confocal microscopy as per Dow et al, as discussed in Antimicrob Agents Chemother. (48)2624-2632 (2004), cited above, and incorporated by reference, herein. Briefly neurons were loaded with calcium sensitive dye Fluo 3-A for 1 h and were washed prior to image experiments. Neurons were ‘spiked’ with 100 μM mefloquine or WR069878. Subsequent changes in neuronal calcium homeostasis were recorded as fluctuations in the emitted fluorescence of fluo-3-complexed calcium at 530 nm (excitation was 488 nm). Sequential image scans of fields containing 5-25 neurons were used to construct temporal profiles. Scans were made at 10 s intervals. Fluorescence levels for each neuron were normalized 12 to time zero values. Data were then pooled from three and five independent experiments for mefloquine and WR069878 respectively.

[2] = tested on: FVO strain of P. falciparum; assay: Efficacy in P. falciparum-challenged Aotus monkeys; assay type: in vivo, Plasmodium falciparum in Aotus lemurinus lemurinus; settings: 10 mg/kg/day x7 oral; groups of two; Cure = parasite free 90 days; R = average day of recrudescence; Failure = rescued with mefloquine
Procedure: (§1) The P. berghei-mouse efficacy data were obtained from the WRAIR chemical information system (subcutaneous testing) or from recent tests conducted at AFRIMS, Thailand or at the University of Miami using a modified version of the Thompson test. Groups of five mice were inoculated through i.p. injection on day 0 (usually with 1×106 P. berghei-parasitized erythrocytes). The drugs in Table 1 were administered either subcutaneously or orally for three days (usually on days 3-5) at doses of 1.25-160 mg/kg in two to four fold increments. Cure was defined as survival until day 60 (subcutaneous dosing) or day 31 post-treatment (oral dosing). […] The minimum effective dose was the lowest dose level that cured at least one of five mice. The Aotus studies were performed according to Obaldia; Detection of Klebsiella pnuumoniae antibodies in Aotus l. lemurinus (Panamanian owl monkey) using an enzyme linked immunosorbent assay (ELIA) test; Lab Anim (25)133-141 (1991) and Obaldia et al., WR 238605, chloroquine, and their combinations as blood schizonticides against a chloroquine-resistant strain of Plasmodium vivax in Aotus monkeys; Am. J. Trop. Med. Hyg. (56)508-510 (1997), which are incorporated by reference, herein. Groups of two Aotus lemurinus 6 lemurinus of the karyotype VIII or IX (27) male and female monkeys with weights ranging from 742-970 g were inoculated with 5×10^6 parasites of either the FVO strain of P. falciparum or the AMRU1 strain of P. vivax. Both of these strains are chloroquine resistant. […] Monkeys were examined and thick Giemsa-stained blood smears were prepared and enumerated daily (17) to monitor the course of infection. […] In some instances, a high dose of the test drug was used to retreat monkeys instead of the mefloquine rescue. Monkeys are considered cured if they are parasite free 90 days post treatment. […] Plasma samples were taken from the monkeys in some studies for quantification of metabolites. Additional blood samples were taken as appropriate for complete blood counts and serum chemistry. Research was conducted in compliance with the Animal Welfare Act and other federal statutes and regulations relating to animals and experiments involving animals and adheres to principles stated in the Guide for the Care and Use of Laboratory Animals, NRC Publication, 1996 edition (34).

[3] = tested on: P. falciparum TM91C235; assay: In vitro antimalarial activity against P. falciparum TM91C235; assay type: cell-based, Plasmodium falciparum; settings: for TM91C235 IC90: Table 2
Procedure: The in vitro activities of AAQMs against P. falciparum strains W2, D6, TM91C235 and TM90C2A were evaluated using the method of Desjardins et al. as modified by Milhous et al. W2 is chloroquine resistant and mefloquine sensitive, D6 is chloroquine sensitive but naturally less susceptible to mefloquine, TM91C235 is resistant to mefloquine, chloroquine and pyrimethamine as is TM90C2A, however this latter parasite is a two pfmdr1 copy strain. We routinely run mefloquine in this screen as a control to ensure assay validity.

[4] = Aotus, 10 mg/kg/day oral x7; for Plasma conc on day 1 (ng/ml) 2 h: day 1, 2 h; for Plasma conc on day 1 (ng/ml) 24 h: day 1, 24 h; for Plasma conc. on day 7 (ng/ml) 2 h: day 7, 2 h; for Plasma conc. on day 7 (ng/ml) 24 h: day 7, 24 h
Procedure: as §1

[5] = Procedure: The AAQMs indicated in Table 1 (10 μM) were added to a mixture containing an NADPH-regenerating buffer (1.25 mM β-NADP+, 3.3 mM glucose-6-phosphate, and 3.3 mM MgCl2) and 0.5 mg/ml pooled human liver microsomes to a final volume of 125 μl. The mixtures were incubated for 5 minutes at 37° C. and the reactions were initiated by adding 25 μl glucose-6-phosphate dehydrogenase to a final concentration of 1 unit/ml. The reactions were maintained at 37° C. until they were terminated by the addition of an equal volume of 100% ice cold acetonitrile at 0, 10, 30, 60, and 120 minutes. Samples were centrifuged to pellet the proteins and the supernatant was analyzed by LC-MS/MS in duplicate using fast LC gradient or isocratic methods. AAQM concentrations were quantified with external calibration, using plots of response v. amount. Chromatograms were analyzed using the mass spectrometry software Xcalibur® QuanBrowser (for ThermoFinnigan® instruments) or MassLynx® (for Waters® instruments). Concentrations of AAQMs remaining at each time point were calculated using the unknown peak areas and corresponding calibration curves. In order to calculate the half-life, a first-order rate of decay was assumed. […] All reagents were purchased from Sigma except for the microsomes, which were obtained from BD Gentest®. For metabolite identification, samples were prepared as described above with human liver microsomes. Additional samples were prepared with for each AAQM using mouse, rat, and rhesus monkey liver microsomes. Samples were separated using an LC gradient method and analyzed by full scan LC-MS and LC-MS/MS. […] These MS/MS data were also used to do preliminary structural elucidation. […] The relative percentage of formation of each metabolite was determined in a semi-quantitative manner since standards of each metabolite were not available. Peak areas of each detected AAQM metabolite and the internal standard were determined, and their ratios were calculated as metabolite area/internal standard area. The percent formation of each metabolite was determined as the area ratio divided by the sum of all the metabolite area ratios.

Structure (SMILES) | Killing of neurons ([1]; at 1000 microM, FIG. 1) | Outcome in Aotus [2] | Activity against P. falciparum TM91C235 (IC50 in ng/ml) [3] | TM91C235 IC90 [3] | IC50 [1] | Mean peak concentration [4] | Plasma conc on day 1 (ng/ml) 2 h [4] | Plasma conc on day 1 (ng/ml) 24 h [4] | Plasma conc. on day 7 (ng/ml) 2 h [4] | Plasma conc. on day 7 (ng/ml) 24 h [4] | Route of metabolic transformation [5]
O=C(O)c1cc(C(F)(F)F)nc2c(C(F)(F)F)cccc12 [Mefloquine metabolite, reference compound] | only partial killing | – | – | – | – | – | – | – | – | – | –
CCCCN(CCCC)CC(O)c1cc(-c2ccc(Cl)cc2)nc2ccc(Cl)cc12 (stereo not shown) [WR035058] | – | Cures and Cure | 2.7 ng/mL | 8.5 ng/mL | 600 µM | 413 ng/mL | 454 ng/mL | 84 ng/mL | 371 ng/mL | 105 ng/mL | –
CCCCN(CCCC)CC(O)c1cc(-c2ccc(Cl)cc2)nc2cc(F)ccc12 (stereo not shown) [WR081049] | – | – | 1.6 ng/mL | – | 200 µM | – | – | – | – | – | –
CCCCCCN(CCCCCC)CC(O)c1cc(-c2ccccc2)nc2c(Cl)cccc12 (stereo not shown) [WR211679] | – | – | 7.7 ng/mL | – | – | – | – | – | – | – | –
CCCCN(CCCC)CC(O)c1cc(-c2ccc(I)cc2)nc2c(Cl)cc(Cl)cc12 (stereo not shown) [WR106752] | – | – | 8.0 ng/mL | – | – | – | – | – | – | – | –
CCN(CC)CC(O)c1cc(-c2ccc(Cl)cc2)nc2c(Cl)cc(Cl)cc12 (stereo not shown) [WR041294] | – | – | 1.1 ng/mL | – | 60 µM | – | – | – | – | – | N-dealkylation
CCCCNCC(O)c1cc(-c2ccc(Cl)cc2)nc2c(Cl)cc(Cl)cc12 (stereo not shown) [WR007524] | – | – | 0.63 ng/mL | – | 60 µM | – | – | – | – | – | not at all
CCCC[N+]([O-])(CCCC)CC(O)c1cc(-c2ccc(Cl)cc2)nc2c(Cl)cc(Cl)cc12 (stereo not shown) [WR098656] | – | – | 3.3 ng/mL | – | 60 µM | – | – | – | – | – | –
CCCCNCC(O)c1cc(-c2ccc(Cl)cc2)nc2c(C)cc(C)cc12 (stereo not shown) [WR176399] | – | cleared parasitemias, but recrudescence was subsequently observed; also recorded: Clear (R21) | 0.48 ng/mL | <0.5 ng/mL | 600 µM | 28 ng/mL | 27 ng/mL | 2.7 ng/mL | 30 ng/mL | 3.8 ng/mL | hydroxylation
CCCCN(CCCC)CC(O)c1cc(-c2ccc(Cl)cc2)nc2c(C)cccc12 (stereo not shown) [WR211925] | – | – | 5.2 ng/mL | – | 600 µM | – | – | – | – | – | –
CCCCN(CCCC)CC(O)c1cc(-c2ccc(Cl)cc2)nc2c(Cl)cc(Cl)cc12 (stereo not shown) [WR029252] | – | Failure | 7.6 ng/mL | 20 ng/mL | 600 µM | 44 ng/mL | 67 ng/mL | 1.0 ng/mL | 21 ng/mL | 1.0 ng/mL | –
